The test system of test [1] is HAdV1. In words: plaque reduction assay in A549 cells, HAdV1. Type of test: cell-based. The conditions noted are these: Human adenovirus sp. As for the experimental part: (§1) The in vitro antiviral testing was done using a standard plaque reduction assay with A549 human lung carcinoma cells as previously described. The EC50s were determined using a Fitted Line Plot Regression analysis with Minitab Version 21 software. The EC50 is the effective concentration that inhibits plaque formation by 50%. The HAdV types tested represent the most common adenovirus serotypes that cause ocular infections (HAdV8, HAdV19/64, HAdV37 (EKC); HAdV3, HAdV4, HAdV7a (follicular conjunctivitis)) and serotypes that cause conjunctivitis and can replicate in the rabbit ocular model (HAdV1, HAdV2, HAdV5).
(§2) For the in vitro antiviral testing, clinical adenovirus isolates of types HAdV1, HAdV2, HAdV3, HAdV4, HAdV5, HAdV7a, HAdV8, and HAdV19/64 were anonymously collected from patients presenting with typical adenoviral conjunctivitis at the Charles T. Campbell Ophthalmic Microbiology Laboratory at the UPMC Eye Center, University of Pittsburgh, Pittsburgh, PA, USA. The isolates were retrieved from a frozen −80 °C retrospective clinical collection that was de-identified and stored for diagnostic test validations. The types of isolates were determined using serum neutralization. Recently, HAdV19 has been reclassified as HAdV64 [41]; however, for the purpose of this study, it was designated as HAdV19/64. No clinical isolates of HAdV37 were identified, therefore the ATCC (American Type Culture Collection, Manassas, VA, USA) reference strain of HAdV37 was used. The clinical isolates along with the ATCC HAdV37 reference strain were grown in A549 cell (CCL-185, ATCC) monolayers and stocks were prepared, aliquoted, and frozen at –80 °C. The titers of the stock viruses were determined as described in Section 4.7. The same clinical isolate of HAdV5 used for the in vitro antiviral testing was also used for the in vivo antiviral evaluation in the Ad5/NZW rabbit ocular replication model.
(§3) A549 human lung carcinoma cells were grown and maintained in Eagle’s MEM supplemented with 10% fetal bovine serum (Sigma Cell Culture Reagents, St. Louis, MO, USA). The A549 cell line was used to prepare the adenovirus stocks and for the determination of viral titers in the Ad5/NZW rabbit ocular replication model and in the in vitro plaque reduction assays.
(§4) Plaque reduction assays were performed 2–4 times using 24-well multiplates containing A549 monolayers. One plate per virus isolate per drug was used. The 24-well multiplates were inoculated with approximately 100 plaque-forming units (PFU) of HAdV per well. After a three-hour adsorption period, the inocula were removed from all wells. […] The plates were dried, and the number of plaques per well was counted using a dissecting microscope. […] The mean and standard deviation EC50 concentrations of 2–4 trials were then determined for each HAdV isolate. […]
On the technique in general: Plaque reduction counts the foci of infection that form in a cell layer.

In test [2] the test system is HAdV5. The experiment in a line: plaque reduction assay in A549 cells, HAdV5. Type of test: cell-based. The conditions noted are these: Human adenovirus sp. As for the experimental part:
as §1, §2, §3, §4

Test [3] relates to HAdV37. In words: plaque reduction assay in A549 cells, HAdV37. It counts as cell-based. The conditions noted are these: Human adenovirus sp. How it is done:
as §1, §2, §3, §4

Test [4] relates to HAdV5. In words: Ad5/NZW rabbit ocular replication model. It counts as in vivo, New Zealand white (NZW) rabbits. The conditions noted are these: for number of HAdV5-positive cultures per group on days 1, 3, 4, 5, 7 and 14 compared with saline control: Fisher Exact Test, p < 0.05; for reduction of the duration of shedding: vs saline control; for Duration of HAdV5 Shedding, Mean ± Sd: n = 20; for Mean ± Sd Combined HAdV5 Ocular Titers, Early Phase (Days 1–5) / Mean ± Sd Combined HAdV5 Ocular Titers, Late Phase (Days 7–14): n = 80. How it is done:
Using the Ad5/NZW rabbit ocular replication model, the current study was performed in duplicate trials using a total of 40 rabbits (20 per trial). Following the systemic and topical anesthesia described above, the rabbits were topically inoculated with 50 µL (1.5 × 10^6 PFU/eye) of HAdV5 in both eyes after corneal epithelial scarification (12 cross-hatched strokes of a #25 sterile needle). Twenty-four hours later, the rabbits were randomly assigned to one of four topical treatment groups (n = 10): (1) 3% CPE-C 4X/day, (2) 3% CPE-C 2X/day, (3) 0.5% Cidofovir 2X/day, and (4) Saline Control 4X/day. Rabbits were treated topically in both eyes according to the above treatment regimens for 7 days. The CPE-C ointments were administered as described above in the ocular toxicity study. Cidofovir and saline were administered as 37 µL aqueous drops. Following topical anesthesia with 0.5% proparacaine, ocular swabbing to recover HAdV5 from the tear film and corneal and conjunctival surfaces was performed on days 0, 1, 3, 4, 5, 7, 9, 11, and 14 after inoculation. The cultures were taken at least 1 h after the final dose of antiviral on the days the antivirals were administered. The swabs from each eye were placed individually into tubes containing 1 mL of tissue culture media and were frozen at −80 °C pending viral plaque assay.
The samples to be assayed were diluted 1:10 for up to 6 dilutions. One-tenth of a ml of both the undiluted sample and the dilutions was inoculated onto duplicate wells of 24-well multiplates containing A549 monolayers. The virus was adsorbed for 3 h at 37 °C in a 5% CO2-water vapor atmosphere. The plates were rocked intermittently to keep the cells from drying. Following adsorption, 1 mL of tissue culture media containing 0.5% methylcellulose was added to each well, and the plates were incubated at 37 °C in a 5% CO2-water vapor atmosphere. After the appropriate incubation period, the cells were fixed and stained with 0.5% gentian violet in formalin. The plates were dried, and the number of plaques per well was counted under a dissecting microscope. The viral titers were then calculated and expressed as plaque-forming units per milliliter (PFU/mL).
The in vitro EC50 data was analyzed with Two-Sample T-Tests using Minitab (Minitab Inc., State College, PA, USA) statistical software Version 21. Following the completion of both trials in the in vivo antiviral efficacy study, the data from each trial were analyzed statistically using Minitab and GraphPad online (https://www.graphpad.com/quickcalcs/contingency1/ (accessed on 16 February 2023)). […] Significance was established at the p ≤ 0.05 confidence level.

Where [5] appears, read: A549, HAdV1, converted from μg/mL.
Where [6] appears, read: HAdV1 clinical isolate, A549 cells, mean ± SD of 2–4 trials.
Where [7] appears, read: A549, HAdV5, converted from μg/mL.
Where [8] appears, read: HAdV5 clinical isolate, A549 cells, mean ± SD of 2–4 trials.
[9] abbreviates: A549, HAdV37, converted from μg/mL.
Where [10] appears, read: HAdV37 ATCC reference strain, A549 cells, mean ± SD of 2–4 trials.
[11] abbreviates: 3% ointment topical 2X/Day for 7 days.
The mark [12] stands for this setting: 3% ointment topical 4X/Day for 7 days.
Setting [13] is: 0.5% drops topical 2X/Day for 7 days.

Structures are written as SMILES. Marks after values point to notes of the source that are not given here.

As for `Nc1ccn([C@@H]2C=C(CO)[C@@H](O)[C@H]2O)c(=O)n1` [CPE-C, Cyclopentenylcytosine], the EC50 (as a rule, the concentration needed to bring the measured effect to its halfway point) in test [1] (setting [5]) turned out to be 0.214 ± 0.027 µM. In addition, the half-maximal effective concentration (EC50) in test [1] (setting [6]) was determined as 0.051 ± 0.007 µg/mL. In addition, a half-maximal effect in test [2] (setting [7]) (EC50) was put at 0.126 ± 0.138 µM. In test [2] (setting [8]), the EC50 was found to be 0.03 ± 0.033 µg/mL. The EC50 in test [3] (setting [9]) came to 0.202 ± 0.037 µM. The same compound came in with an EC50 in test [3] (setting [10]) of 0.048 ± 0.008 µg/mL. Besides, in test [4] (3% 2X/day), the “number of HAdV5-positive cultures per group on days 1, 3, 4, 5, 7 and 14 compared with saline control” value was “significantly reduced”. In addition, the “number of HAdV5-positive cultures per group on days 1, 3, 4, 5, 7 and 14 compared with saline control” value in test [4] (3% 4X/day) is recorded as “significantly reduced”. In addition, the “reduction of the duration of shedding” value in test [4] (3% administered 2X per day for 7 days) amounted to 5.6 days. Moreover, the “reduction of the duration of shedding” value in test [4] (3% administered 4X per day for 7 days) is 6.8 days. Also, in test [4] (setting [11]), the “HAdV5-Positive Eye Cultures/Total, Early Phase (Days 1–5)” value is 29/80; the “HAdV5-Positive Eye Cultures/Total, Early Phase (Days 1–5), percent” value is reported as 36%; the “HAdV5-Positive Eye Cultures/Total, Late Phase (Days 7–14)” value was 2/80; the “HAdV5-Positive Eye Cultures/Total, Late Phase (Days 7–14), percent” value is 3%. Besides, in test [4] (setting [11]), the “HAdV5-Positive Eye Cultures/Total, Overall (Days 1–14)” value is on record as 31/160; the “HAdV5-Positive Eye Cultures/Total, Overall (Days 1–14), percent” value was 19%; the “Duration of HAdV5 Shedding, Mean ± Sd” value is 2.5 ± 2.3 ^d Days; the “Mean ± Sd Combined HAdV5 Ocular Titers, Early Phase (Days 1–5)” value is 3.5 ± 18.1 × 10^1 b Log10 PFU/mL. In addition, in test [4] (setting [11]), the “Mean ± Sd Combined HAdV5 Ocular Titers, Late Phase (Days 7–14)” value was 3.6 ± 25.2 × 10^0 c Log10 PFU/mL. In test [4] (setting [12]), the “HAdV5-Positive Eye Cultures/Total, Late Phase (Days 7–14)” value is recorded as 6/80; the “HAdV5-Positive Eye Cultures/Total, Late Phase (Days 7–14), percent” value is 8%; the “HAdV5-Positive Eye Cultures/Total, Overall (Days 1–14)” value is on record as 24/160; the “HAdV5-Positive Eye Cultures/Total, Overall (Days 1–14), percent” value was 15%. Also, in test [4] (setting [12]), the “Duration of HAdV5 Shedding, Mean ± Sd” value is on record as 1.3 ± 1.6 ^d Days; the “Mean ± Sd Combined HAdV5 Ocular Titers, Early Phase (Days 1–5)” value is 1.6 ± 4.8 × 10^1 b Log10 PFU/mL; the “Mean ± Sd Combined HAdV5 Ocular Titers, Late Phase (Days 7–14)” value is 0.9 ± 4.4 × 10^0 c Log10 PFU/mL.

In test [1] (setting [5]), `Nc1ccn(C[C@@H](CO)OCP(=O)(O)O)c(=O)n1` [Cidofovir, cidofovir, reference compound] had an EC50 of 18.9 ± 2.11 µM. The midpoint of the response in test [1] (setting [6]), the EC50, lay at 5.27 ± 0.588 µg/mL. Besides, the EC50 in test [2] (setting [7]) was determined as 17.6 ± 1.74 µM. This compound also had an EC50 in test [2] (setting [8]) of 4.92 ± 0.486 µg/mL. For the same compound, it took 17.2 ± 2.43 µM to reach a half-maximal effect in test [3] (setting [9]) (EC50). Further, in test [3] (setting [10]), the midpoint of the response, the EC50, lay at 4.79 ± 0.678 µg/mL. Also, the “number of HAdV5-positive cultures per group on days 1, 3, 4, 5, 7 and 14 compared with saline control” value in test [4] (0.5% 2X/day) is reported as “significantly reduced”. Moreover, the “HAdV5-positive cultures on day 9 compared with saline control” value in test [4] (0.5% 2X/day, p = 0.0197, FET) is recorded as “significantly fewer”. Besides, in test [4] (setting [13]), the “HAdV5-Positive Eye Cultures/Total, Early Phase (Days 1–5)” value is reported as 26/80; the “HAdV5-Positive Eye Cultures/Total, Early Phase (Days 1–5), percent” value came out at 33%; the “HAdV5-Positive Eye Cultures/Total, Late Phase (Days 7–14)” value is 1/80; the “HAdV5-Positive Eye Cultures/Total, Late Phase (Days 7–14), percent” value worked out at 1%. Further, in test [4] (setting [13]), the “HAdV5-Positive Eye Cultures/Total, Overall (Days 1–14)” value is listed as 27/160; the “HAdV5-Positive Eye Cultures/Total, Overall (Days 1–14), percent” value is listed as 17%; the “Duration of HAdV5 Shedding, Mean ± Sd” value is reported as 2.0 ± 1.8 ^d Days; the “Mean ± Sd Combined HAdV5 Ocular Titers, Early Phase (Days 1–5)” value is given as 6.7 ± 12.7 × 10^0 b Log10 PFU/mL. Moreover, in test [4] (setting [13]), the “Mean ± Sd Combined HAdV5 Ocular Titers, Late Phase (Days 7–14)” value is recorded as 0.3 ± 2.2 × 10^0 c Log10 PFU/mL.

The values above are taken from PMC10343472, “Cyclopentenylcytosine (CPE-C): In Vitro and In Vivo Evaluation as an Antiviral against Adenoviral Ocular Infections” (Molecules, 2023).
